From patent publication US4473572A, “α2 -Adrenoceptor antagonistic benzoquinolizines” (John Wyeth & Brother, Limited, priority 1982, dated 1984) come the findings set out here.

The target in one assay is T1, α2-adrenoceptor (Rattus norvegicus, UniProt P22909).
T1 construct: from tissue; host or cells: desheathed vas deferens of sexually mature rats
T1 sequence (P22909 1-465): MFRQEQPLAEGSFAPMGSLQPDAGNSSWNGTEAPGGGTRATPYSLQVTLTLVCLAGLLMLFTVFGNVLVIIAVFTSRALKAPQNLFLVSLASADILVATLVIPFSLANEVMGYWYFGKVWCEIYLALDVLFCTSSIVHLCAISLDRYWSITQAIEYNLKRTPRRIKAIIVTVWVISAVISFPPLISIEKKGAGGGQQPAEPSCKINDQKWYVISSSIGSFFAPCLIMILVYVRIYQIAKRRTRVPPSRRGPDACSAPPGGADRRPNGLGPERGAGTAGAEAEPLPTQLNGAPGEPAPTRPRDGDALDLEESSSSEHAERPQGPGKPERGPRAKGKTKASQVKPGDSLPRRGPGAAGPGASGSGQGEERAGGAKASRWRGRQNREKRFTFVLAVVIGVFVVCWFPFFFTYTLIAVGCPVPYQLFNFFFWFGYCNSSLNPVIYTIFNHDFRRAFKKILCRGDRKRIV
The assay is described as follows: α2-adrenoceptor antagonistic activity on the rat field stimulated vas deferens preparation (against clonidine). As to conditions: for α2/α1 selectivity: antilog of (α2 pA2 - α1 pA2); for Kb: rat field stimulated vas deferens, clonidine as agonist, 37°, 90 min after introduction of antagonist, Arunlakshana & Schild, read-out: pA2 (α2) (converted). The protocol:
The compounds of the invention were tested for their α2 -adrenoceptor antagonistic activity on the rat field stimulated vas deferens preparation using a modification of the method of Drew, Eur.J.Pharmac., 1977, 42, 123-130. The procedure is described below.
Desheathed vas deferentia from sexually mature rats were suspended in a 6 ml organ bath in Krebs solution at 37° and bubbled with 5% CO2 in oxygen. Platinum ring electrodes were positioned above and below the tissue for field stimulation, the stimulus parameters being 0.1 Hz 1 ms pulse width at supramaximal voltage. Twitch responses were recorded isotonically with a 0.5 g loading. Clonidine hydrochloride was used as the α-adrenoceptor agonist and cumulative concentration-response curves were constructed for the inhibition of twitch obtained with clonidine in the range 0.125 to 4 ng ml^-1. After washing out clonidine, the twitch response quickly recovered and an antagonist was then introduced into the Krebs reservoir. Clonidine concentration-response curves were repeated 90 min after introduction of the antagonist. The concentration of clonidine producing 50% inhibition of twitch before and after introduction of antagonist were obtained and the dose-ratio for clonidine was calculated. Various concentrations of the antagonists were used.
Chemother., 1959, 14, 48-58 and the values of pA2 and slope were calculated.

For a further assay, the target named is T2, α1-adrenoceptor (Rattus norvegicus, UniProt P43140).
T2 construct: isolated anococcygeus muscle of the rat; from tissue; host or cells: anococcygeus muscle of male rats (250-360 g)
T2 sequence (P43140 1-466): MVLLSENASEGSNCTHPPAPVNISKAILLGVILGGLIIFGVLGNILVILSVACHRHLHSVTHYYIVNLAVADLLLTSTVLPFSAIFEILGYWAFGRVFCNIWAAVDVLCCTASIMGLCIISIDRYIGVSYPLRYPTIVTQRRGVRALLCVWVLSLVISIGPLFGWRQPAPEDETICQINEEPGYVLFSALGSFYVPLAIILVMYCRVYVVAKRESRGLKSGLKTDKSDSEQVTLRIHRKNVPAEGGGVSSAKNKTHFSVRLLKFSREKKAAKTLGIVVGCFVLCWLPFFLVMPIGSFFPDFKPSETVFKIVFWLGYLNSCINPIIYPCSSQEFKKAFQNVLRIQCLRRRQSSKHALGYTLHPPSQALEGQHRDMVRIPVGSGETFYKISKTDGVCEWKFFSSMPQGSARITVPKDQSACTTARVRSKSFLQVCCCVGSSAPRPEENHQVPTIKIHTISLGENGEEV
Put plainly: α1 antagonistic activity on the isolated anococcygeus muscle of the rat (against phenylephrine or methoxamine). Conditions: antagonist of phenylephrine or methoxamine, 37°, 10^-6 to 10^-4 M test drug, 30 min equilibration, read-out: pA2 (α1) (converted). The source says: The α1 antagonistic activity can be evaluated by a number of different methods. One method involves assessing the activity on the isolated anococcygeus muscle of the rat. The method is based on that of Gillespie, Br.J.Pharmac., 1972, 45, 404-416. In the procedure male rats (250-360 g) are killed by a blow on the head and bled. The two anococcygeus muscles are removed from their position in the midline of the pelvic cavity, where they arise from the upper coccygeal vertebrae. The muscles are suspended in 5 ml organ baths in Krebs solution containing 10^-4 M ascorbic acid, to prevent drug oxidation. The tissues are gassed with a 95% oxygen, 5% CO2 mixture and maintained at 37°. Longitudinal muscle contractions are recorded using isotonic transducers. Cumulative dose response curves are then obtained to phenylephrine or in some cases methoxamine, both agents being […] alpha adrenoceptor agonists. The concentration range of phenylephrine or methoxamine used is 0.02 to 0.8 μg.ml^-1. The agonist is then washed from the bath and the test drug added to the bathing medium at a concentration of 10^-6 M. After 30 min. equilibration with the test drug a further agonist dose response curve is obtained. The washing, equilibration and agonists dosing procedures are then repeated using 10^-5 M and 10^-4 M solutions of the test drug. Estimates of the pA2 value for the test drug as an antagonist of phenylephrine or methoxamine were made from the agonist dose-ratios using the method of Arunlakshana & Schild, Br.J.Pharmac.Chemother., 1959, 14, 48-58.

`CN([C@H]1CCN2CCc3ccccc3[C@H]2C1)S(=O)(=O)C(F)(F)F` (relative stereo) [Example 1, N-Methyl-N-(1,3,4,6,7,11bα-hexahydro-2H-benzo[a]quinolizin-2β-yl)-trifluoromethanesulphonamide] registered a α2/α1 selectivity on α2-adrenoceptor of 46. Further, the Kb is 70.8 nM at α2-adrenoceptor and 3240 nM on α1-adrenoceptor.
For `CN([C@H]1CCN2CCc3ccccc3[C@H]2C1)S(=O)(=O)CC(F)(F)F` (relative stereo) [Example 2, N-Methyl-N-(1,3,4,6,7,11bα-hexahydro-2H-benzo[a]quinolizin-2β-yl)-2',2',2'-trifluoroethanesulphonamide], at α2-adrenoceptor, the α2/α1 selectivity is reported as 43 and the Kb is 27.5 nM. At α1-adrenoceptor, the Kb is 1170 nM.
On the same counts, the results for `CN([C@H]1CCN2CCc3ccccc3[C@H]2C1)S(=O)(=O)CCl` (relative stereo) [Example 3, N-Methyl-N-(1,3,4,6,7,11bα-hexahydro-2H-benzo[a]quinolizin-2β-yl)chloromethanesulphonamide] are 45, 8.91 nM and 245 nM.
For the compound `CN([C@H]1CCN2CCc3ccccc3[C@H]2C1)S(=O)(=O)CCCCl` (relative stereo) [Example 4, N-Methyl-N-(1,3,4,6,8,11bα-hexahydro-2H-benzo[a]quinolizin-2β-yl)-3'-chloropropanesulphonamide], on α2-adrenoceptor, the α2/α1 selectivity turned out to be 27.5 and the Kb was 8.32 nM. The Kb at α1-adrenoceptor is 288 nM.
